Results taken from patent US12643871B2, “Aryl formamide compound containing chiral sulfur oxide or salt thereof, preparation method, herbicidal composition and use thereof” (Qingdao Kingagroot Chemical Compound Co., Ltd., priority 2019, dated 2026).

Experiments:
Format in all cases: in vivo
[1] = system: Abutilon theophrasti; assay: Weeding effect in post-emergence stage; settings: 250 g/ha; 2 leaf stage; 15 days after application; fresh weight control rate
In short: (§1)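 Pot-grown weeds sprayed post-emergence at the 2-leaf stage, 2 weeks after sowing, with compound in acetone/Tween 80 plus 1.5 L/ha methyl oleate concentrate at 500–15 g/ha. Fresh-weight growth control scored after 15 days in greenhouse, mean of three replicates, graded levels 0–5 (5: >85%, 0: <5%).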

[2] = system: Digitaria sanguinalis; assay: Weeding effect in post-emergence stage; settings: 250 g/ha; 2 leaf stage; 15 days after application; fresh weight control rate
In short: as §1

[3] = system: Echinochloa crusgali; assay: Weeding effect in post-emergence stage; settings: 250 g/ha; 2 leaf stage; 15 days after application; fresh weight control rate
In short: as §1

[4] = system: Setaria viridis; assay: Weeding effect in post-emergence stage; settings: 250 g/ha; 2 leaf stage; 15 days after application; fresh weight control rate
In short: as §1

[5] = system: Amaranthus retroflexus; assay: Weeding effect in post-emergence stage; settings: 250 g/ha; 2 leaf stage; 15 days after application; fresh weight control rate
In short: as §1

[6] = system: key weeds such as Digitaria sanguinalis, Leptochloa chinensis; assay: Comparison experiment (post-emergence, Tables 4-7), herbicidal activity on weeds not listed separately
From the text: The above growth control rates are fresh weight control rates.
Experiment on weeding effect in post-emergence stage: monocotyledonous and dicotyledonous weed seeds (Descurainia sophia, Capsella bursa-pastoris, Galium aparine, Stellaria media, Lithospermum arvense, Rorippa indica, Alopecurus aequalis, Beckmannia syzigachne, Sclerochloa dura, Phleum paniculatum, Bromus japonicus, Aegilops tauschii, Phalaris arundinacea, Amaranthus retroflexus, Chenopodiaceae, Commelina communis, Sonchus arvensis, convolvulus arvensis, Cirsium setosum, Solanum nigrum, Acalypha australis, Digitaria sanguinalis, Echinochloa crusgalli, Setaria viridis, Setaria glauca, Leptochloa chinensis, Monochoria vaginalis, Sagittaria trifolia, Scirpus juncoides, Cyperus rotundus, Cyperus iria, Cyperus difformis, Fimbristylis, Portulaca oleracea, Xanthium sibiricum, Pharbitis nil) and major crop seeds (wheat, corn, rice, soybean, cotton, oilseed rape, millet, sorghum, potato, sesame, ricinus) were placed in plastic pots filled with soil, then covered with 0.5-2 cm of soil, allowed to grow in a good greenhouse environment. After 2 weeks of sowing, the test plants were treated in the 2 leaf stage. The tested compounds of the present invention were respectively dissolved in acetone, then added with Tween 80 and 1.5 liter/ha of emulsifiable concentrate of methyl oleate as synergist, diluted with a certain amount of water to obtain a solution with a certain concentration, and sprayed with a spray tower onto the plants. After the application, the plants were cultured for 15 days in the greenhouse, and then the experimental results of the weeding were counted. The doses of the used compounds were 500, 250, 125, 60, 30, 15 g/ha, and the averages were obtained by repeating for three times.
If there is no clear marker, the post-seedling test conditions are the same as above, and the experimental results are shown in Tables 4-7.

| SMILES | weeding effect in post-emergence stage, activity level (growth control rate), Abutilon theophrasti [1] | weeding effect in post-emergence stage, activity level (growth control rate), Digitaria sanguinalis [2] | weeding effect in post-emergence stage, activity level (growth control rate), Echinochloa crusgali [3] | weeding effect in post-emergence stage, activity level (growth control rate), Setaria viridis [4] | weeding effect in post-emergence stage, activity level (growth control rate), Amaranthus retroflexus [5] | herbicidal activity and/or crop safety compared with the corresponding racemate or S configuration ([6]; dose of 120, 48, 30, 24 g/ha) | herbicidal activity and/or crop safety compared with the corresponding racemate or S configuration ([6]; doses of 125, 60, 30, 15 g/ha, X replaced by other five membered rings) | herbicidal activity and/or crop safety compared with the corresponding racemate or S configuration ([6]; no dose stated) |
| --- | --- | --- | --- | --- | --- | --- | --- | --- |
| CSc1c(C(=O)Nc2nnc(C)o2)ccc(C(F)(F)F)c1[S@+]([O-])CC1CC1 [Compound 554] | 5 (Level 5: growth control rate is above 85%) | 5 (Level 5: growth control rate is above 85%) | 5 (Level 5: growth control rate is above 85%) | 5 (Level 5: growth control rate is above 85%) | 5 (Level 5: growth control rate is above 85%) | better herbicidal activity and/or crop safety |  |  |
| CSc1c(C(=O)Nc2nnc(C)o2)ccc(C(F)(F)F)c1[S@+]([O-])CCCF [Compound 559] | 5 (Level 5: growth control rate is above 85%) | 5 (Level 5: growth control rate is above 85%) | 5 (Level 5: growth control rate is above 85%) | 5 (Level 5: growth control rate is above 85%) | 5 (Level 5: growth control rate is above 85%) | better herbicidal activity and/or crop safety |  |  |
| CCC[S@@+]([O-])c1c(C(F)(F)F)ccc(C(=O)Nc2nnc(C)o2)c1SCC [Compound 569] | 5 (Level 5: growth control rate is above 85%) | 5 (Level 5: growth control rate is above 85%) | 5 (Level 5: growth control rate is above 85%) | 5 (Level 5: growth control rate is above 85%) | 5 (Level 5: growth control rate is above 85%) | better herbicidal activity and/or crop safety |  |  |
| CCC[S@@+]([O-])c1c(C(F)F)ccc(C(=O)Nc2nnnn2C)c1F [Compound 856] | 5 (Level 5: growth control rate is above 85%) | 5 (Level 5: growth control rate is above 85%) | 5 (Level 5: growth control rate is above 85%) | 5 (Level 5: growth control rate is above 85%) | 5 (Level 5: growth control rate is above 85%) |  | better herbicidal activity and/or crop safety |  |
| CCC[S@@+]([O-])c1c(C(F)F)ccc(C(=O)Nc2nnc(C)o2)c1OC [Compound 864] | 5 (Level 5: growth control rate is above 85%) | 5 (Level 5: growth control rate is above 85%) | 5 (Level 5: growth control rate is above 85%) | 5 (Level 5: growth control rate is above 85%) | 5 (Level 5: growth control rate is above 85%) |  |  | better herbicidal activity and/or crop safety |
